This note sets out measurements from patent publication US20100196516A1, “TREATMENT OF INFECTIONS BY CARBON MONOXIDE” (priority 2007, published 2010).

“Also recorded” adds a separate entry of the source.

The subject of one data set is S. aureus NCTC8325. It is filed as cell-based, Staphylococcus aureus. The conditions noted are these: for effect on viability / growth of S. aureus: CO gas flux 15 min, CORM-2 250 μM, CORM-3 500 or 400 nM (so in the source), Formula IV 600 μM, Formula V 50 μM, LB medium; for bactericidal effect on S. aureus in the presence of Hb: with CO scavenger Hb, bovine, 20 μM. The procedure: (§1) Bacterial strains and growth conditions: E. coli K-12 ATCC 23716 and S. aureus NCTC8325 were grown in minimal salts (MS) medium (1.3% [wt/vol] Na2HPO4, 0.3% [wt/vol] KH2PO4, 0.05% [wt/vol] NaCl, and 0.1% [wt/vol] NH4Cl supplemented with 20 mM glucose, 2 mM MgSO4, 100 μM CaCl2, and 0.25% [wt/vol] Casamino Acids) and in Luria-Bertani (LB) medium (1% [wt/vol] tryptone, 0.5% [wt/vol] yeast extract, and 1% [wt/vol] NaCl), respectively, under different oxygen supply conditions. Aerobic experiments were undertaken with flasks filled to one-fifth of their volume, microaerobic tests were conducted with closed flasks filled to one-half of their volume, and anaerobic conditions were produced in rubber-sealed flasks that, once filled with medium and closed, were extensively fluxed with nitrogen gas.
(§2) CO gas and CORM treatment: Overnight cultures of E. coli or S. aureus grown in LB or tryptic soy broth, respectively, were used to inoculate fresh MS medium (E. coli) or LB medium (S. aureus), and the cultures on fresh medium were incubated at 37° C. under the required aeration conditions to an optical density at […] of 0.3. At this point, cells were exposed to a flux of CO gas for 15 min or to CORMs. Untreated cells were bubbled with nitrogen gas or treated with dimethyl sulfoxide, water, or methanol, depending on the solvent used to dissolve the CORM.
(§3) Viability assays: The number of viable cells was evaluated by measuring the CFU per milliliter upon plating serial dilutions of the various cultures onto agar plates. The percent survival was calculated as the number of colonies originated by treated cultures divided by the number of colonies formed upon the plating of untreated cultures. Sensitivity tests were conducted by plating 5 μl serial dilutions of cultures grown for 4 h and treated with CORMs, with or without the CO scavenger hemoglobin (Hb [bovine form used at 20 μM; Sigma]), onto agar.

A short description of data set [1]: CO release kinetics: CO released into medium by CORMs (gas chromatography). The conditions noted are these: media utilized (MS, LB), time scale of the experiment. In kind it is physicochemical. Here is the method: CO release kinetics: CORMs were mixed with MS or LB medium in sealed vessels, and the vessels were incubated at room temperature under constant stirring and protected from light. Gas samples were collected after 30 min and 4 h and analyzed using a gas chromatograph (Thermo Finnigan Trace) equipped with a CTRI column (Alltech) and a thermal conductivity detector. The CO released was quantified using a calibration curve recorded prior to the reaction course.

The subject of a further data set is E. coli K-12 ATCC 23716. In kind it is cell-based, Escherichia coli. The conditions noted are these: for effect on viability / growth of E. coli: CO gas flux 15 min, CORM-2 250 μM, CORM-3 400 μM, Formula IV 500 μM aerobic or 200 μM anaerobic, Formula V 50 μM, MS medium; for bactericidal effect on E. coli in the presence of Hb: with CO scavenger Hb, bovine, 20 μM. Here is the method:
as §1, §2, §3

For the next data set, the system named is E. coli. As to the kind of experiment: MIC and MBC by tube dilution test. In kind it is cell-based, Escherichia coli. The conditions noted are these: minimal medium, at least 18 h at 37° C. Here is the method:
(§4) The investigation of MICs and minimal bactericidal concentrations (MBCs) was carried out by the tube dilution test. Briefly, 2.5 ml of minimal medium was inoculated with an overnight culture of E. coli or S. aureus to give an optical density at 600 nm of 0.005 to 0.01. Different concentrations of CORM-2, between 150 μM and 2 mM, were added to the diluted suspensions in the wells of 24-well plates, and the plates were incubated for at least 18 h at 37° C. and 90 rpm. The concentration of CORM-2 in the first well in the series with no sign of visible growth was reported as the MIC. […] After incubation at 37° C. for 24 h, the lowest concentration of CORM-2 in a culture with no growth was assumed to be the MBC.

The next data set relates to S. aureus. Briefly: MIC and MBC by tube dilution test. In kind it is cell-based, Staphylococcus aureus. The conditions noted are these: minimal medium, at least 18 h at 37° C. Here is the method: as §4
The next data set concerns H. pylori 26695. Briefly: Diffusion disk assay, inhibition halos. In kind it is cell-based, Helicobacter pylori. The conditions noted are these: paper disks, 15 μl; 200 mM CORM-2; 150 mM Formula II and Formula III; 24-36 hours.
The next data set has as its target T1, hemoglobin (Hb) (Bos taurus, UniProt P01966+P02070).
T1 construct: purchased Sigma
As to the kind of experiment: Transfer of CO from CORMs to Hb (carbonylation, shift of Soret band). In kind it is biochemical, bovine.

Another data set relates to bacteria. Briefly: Bactericidal effect / bacterial growth, bacterium not given. It is filed as cell-based. The conditions noted are these: for bactericidal properties or altered growth kinetics of decomposition products: same concentration as compound of Formula V (50 μM), data not shown. Here is the method:
as §2
as §3, with “agar. The experiments were performed with a minimum of three independent cultures, and the results are presented in the figures as averaged values with error bars representing one standard deviation.” for “agar.”

T1 sequence (P01966 2-142): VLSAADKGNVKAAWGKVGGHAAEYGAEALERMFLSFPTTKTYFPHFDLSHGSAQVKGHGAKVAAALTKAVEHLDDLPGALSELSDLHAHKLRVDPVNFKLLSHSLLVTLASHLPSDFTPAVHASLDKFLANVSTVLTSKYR
T1 sequence (P02070 whole entry): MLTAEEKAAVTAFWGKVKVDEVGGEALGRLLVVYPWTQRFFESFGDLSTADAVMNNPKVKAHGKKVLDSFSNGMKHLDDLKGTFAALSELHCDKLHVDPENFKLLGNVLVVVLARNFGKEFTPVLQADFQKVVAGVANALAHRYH

For `O=[C]=[Mn]([Br])(=[C]=O)(=[C]=O)(=[C]=O)=[C]=O` [compound of Formula IV, bromo(pentacarbonyl)manganese], in the data set on S. aureus NCTC8325, the “effect on viability / growth of S. aureus” value is on record as “strongly reducing the viability” and the “bactericidal effect on S. aureus in the presence of Hb” value is “completely eliminated the harmful action”. Moreover, the “release of CO gas upon dissolution in the medium (in words)” value (“release of CO gas upon dissolution” below) in data set [1] is “rather small amounts”. For the same molecule, in the data set with E. coli K-12 ATCC 23716, the “effect on viability / growth of E. coli” value is given as “strongly reducing the viability; also recorded: more effective in reducing the viability of E. coli cells grown anaerobically” and the “bactericidal effect on E. coli in the presence of Hb” value is “completely eliminated the harmful action”.

Consider `[C-]#[O+].[C-]#[O+].[C-]#[O+].[C-]#[O+].[C-]#[O+].[C-]#[O+].[Cl][Ru][Cl].[Cl][Ru][Cl]` [CORM-2, tricarbonyldichlororuthenium(II) dimer, reference compound], for which, in the data set with S. aureus NCTC8325, the “effect on viability / growth of S. aureus” value was “significantly diminished”. Also, the “release of CO gas upon dissolution” value in data set [1] is listed as “neither CORM-2 nor CORM-3 releases CO gas”. In addition, the MBC/MIC ratio stood at 1.5 in the data set on E. coli and 1.0 in the data set with S. aureus. The “bactericidal effect on H. pylori (inhibition halos)” value in the data set on H. pylori 26695 is “bactericidal effect”. Moreover, on hemoglobin (Hb), the “time for carbonylation of Hb (in words)” value is reported as “within the mixing time”. The “effect on viability / growth of E. coli” value in the data set on E. coli K-12 ATCC 23716 is recorded as “significantly diminished”.

For the molecule `O=[C][Mo]12([C]=O)([C]=O)[O]C(=O)CN(CCN(CC(=O)O)CC(=O)[O]1)CCN(CC(=O)O)CC(=O)[O]2` [compound of Formula III], the “bactericidal effect on H. pylori (inhibition halos)” value in the data set on H. pylori 26695 is “bactericidal effect”.

Turning to `[Na+].[Na+].[O]=[Mo](=[O])([O-])[O-]` [sodium molybdate], the “bactericidal properties or altered growth kinetics of decomposition products” value in the data set with bacteria was “None of these compounds had bactericidal properties or altered growth kinetics”.

As for `CC[N+](CC)(CC)CC.O=[C]=[Mo-]([Br])(=[C]=O)(=[C]=O)(=[C]=O)=[C]=O` [compound of Formula V, tetraethylammonium molybdenum pentacarbonyl bromide], in the data set on S. aureus NCTC8325, the “effect on viability / growth of S. aureus” value was “strongly reducing the viability” and the “bactericidal effect on S. aureus in the presence of Hb” value is on record as “completely eliminated the harmful action”. For the same molecule, the “release of CO gas upon dissolution” value in data set [1] is listed as “rather small amounts”. In addition, in the data set on E. coli K-12 ATCC 23716, the “effect on viability / growth of E. coli” value is “strongly reducing the viability” and the “bactericidal effect on E. coli in the presence of Hb” value is “completely eliminated the harmful action”.

Regarding `[C-]#[O+]` [CO gas, Carbon monoxide], the “effect on viability / growth of S. aureus” value with S. aureus NCTC8325 is reported as “significant growth impairment”. Besides, in the data set on bacteria (CO administered as gas), the “concentration of CO needed to become effective as a bactericide” value is on record as “ca. 1 mM”. For the same molecule, the “effect on viability / growth of E. coli” value with E. coli K-12 ATCC 23716 is given as “significant growth impairment”.

Take `CC[N+](CC)(CC)CC.[Br-]` [tetraethyl ammonium bromide]: in the data set on bacteria, the “bactericidal properties or altered growth kinetics of decomposition products” value is listed as “None of these compounds had bactericidal properties or altered growth kinetics”.

Consider `NCC(=O)O.[CH+]=O.[CH+]=O.[CH+]=O.[Cl][Ru]` [CORM-3, tricarbonylchloro(glycinato)ruthenium(II), reference compound], for which the “effect on viability / growth of S. aureus” value in the data set on S. aureus NCTC8325 was “strongly decreased the viability”. The “release of CO gas upon dissolution” value in data set [1] is given as “neither CORM-2 nor CORM-3 releases CO gas”. The “time for carbonylation of Hb (in words)” value at hemoglobin (Hb) is on record as “within the mixing time”. Moreover, the “effect on viability / growth of E. coli” value in the data set on E. coli K-12 ATCC 23716 is reported as “strongly decreased the viability”.
